Laboratory results published in PubChem BioAssay AID248 (DTP/NCI, 2004).
Inconclusive results and toxic doses are left out. No stated cut-off is given here; in the data, active means T/C of 150% or more; inactive means T/C below 125%.

System: L1210 leukemia ip in BDF1 mice, survival T/C
Assay: NCI In Vivo Anticancer Drug Screen. Data for tumor model L1210 Leukemia (intraperitoneal) in B6D2F1 (BDF1) mice
Details: endpoint: mean survival time, higher = longer survival
Outline: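 Mice bearing the transplanted tumor received compound or vehicle. Survival of the treated group was divided by that of the vehicle-treated control group to give the ratio.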

[1] = dose: 100.0 mg/kg/injection, schedule: Q01DX009 (ip), vehicle: saline with Tween-80
[2] = dose: 100.0 mg/kg/injection, schedule: Q04DX003 (ip), vehicle: saline with Tween-80
[3] = dose: 200.0 mg/kg/injection, schedule: Q01DX009 (ip), vehicle: saline with Tween-80
[4] = dose: 200.0 mg/kg/injection, schedule: Q04DX003 (ip), vehicle: saline with Tween-80
[5] = dose: 100.0 mg/kg/injection, schedule: Q01DX009 (ip), vehicle: Klucel (hydroxypropylcellulose) (HPC)
[6] = dose: 200.0 mg/kg/injection, schedule: Q01DX009 (ip), vehicle: Klucel (hydroxypropylcellulose) (HPC)
[7] = dose: 50.0 mg/kg/injection, schedule: Q04DX002 (ip), vehicle: Klucel (hydroxypropylcellulose) (HPC)
[8] = dose: 100.0 mg/kg/injection, schedule: Q04DX002 (ip), vehicle: Klucel (hydroxypropylcellulose) (HPC)
[9] = dose: 200.0 mg/kg/injection, schedule: Q04DX002 (ip), vehicle: Klucel (hydroxypropylcellulose) (HPC)
[10] = dose: 100.0 mg/kg/injection, schedule: Q01DX001 (ip), vehicle: saline
[11] = dose: 200.0 mg/kg/injection, schedule: Q01DX001 (ip), vehicle: saline
[12] = dose: 400.0 mg/kg/injection, schedule: Q01DX001 (ip), vehicle: saline
[13] = dose: 100.0 mg/kg/injection, schedule: Q04DX003 (ip), vehicle: Klucel (hydroxypropylcellulose) (HPC)
[14] = dose: 200.0 mg/kg/injection, schedule: Q04DX003 (ip), vehicle: Klucel (hydroxypropylcellulose) (HPC)
[15] = dose: 400.0 mg/kg/injection, schedule: Q01DX009 (ip), vehicle: Klucel (hydroxypropylcellulose) (HPC)
[16] = dose: 400.0 mg/kg/injection, schedule: Q04DX003 (ip), vehicle: Klucel (hydroxypropylcellulose) (HPC)

Measured: T/C

CC(=O)OCC(C)([N+](=O)[O-])[N+](=O)[O-]
inactive: [1] 93 % of control | [2] 95 % of control | [3] 90 % of control | [4] 101 % of control | dose: 400.0 mg/kg/injection, schedule: Q01DX009 (ip), vehicle: saline with Tween-80 91 % of control | dose: 400.0 mg/kg/injection, schedule: Q04DX003 (ip), vehicle: saline with Tween-80 103 % of control

CCNC(=S)OC1CCC2(C)C(=CCC3C2CCC2(C)C(C(C)CCC(CC)C(C)C)CCC32)C1 (stereo unspecified)
inactive: dose: 100.0 mg/kg/injection, schedule: Q04DX002 (ip), vehicle: saline with Tween-80 87 % of control | dose: 200.0 mg/kg/injection, schedule: Q04DX002 (ip), vehicle: saline with Tween-80 87 % of control | dose: 400.0 mg/kg/injection, schedule: Q04DX002 (ip), vehicle: saline with Tween-80 94 % of control

Cn1c(O)c(N=NC(N)=S)c2ccccc21
inactive: dose: 3.0 mg/kg/injection, schedule: Q01DX015 (ip), vehicle: carboxymethylcellulose (CMC) 96 % of control | dose: 6.0 mg/kg/injection, schedule: Q01DX015 (ip), vehicle: carboxymethylcellulose (CMC) 103 % of control | dose: 12.0 mg/kg/injection, schedule: Q01DX015 (ip), vehicle: carboxymethylcellulose (CMC) 97 % of control | dose: 25.0 mg/kg/injection, schedule: Q01DX015 (ip), vehicle: carboxymethylcellulose (CMC) 106 % of control | dose: 50.0 mg/kg/injection, schedule: Q01DX015 (ip), vehicle: carboxymethylcellulose (CMC) 103 % of control | dose: 62.5 mg/kg/injection, schedule: Q01DX015 (ip), vehicle: carboxymethylcellulose (CMC) 107 % of control

CC(=O)OCC(C)(C)N
inactive: dose: 100.0 mg/kg/injection, schedule: Q04DX002 (ip), vehicle: saline 89 % of control | dose: 200.0 mg/kg/injection, schedule: Q04DX002 (ip), vehicle: saline 110 % of control | dose: 400.0 mg/kg/injection, schedule: Q04DX002 (ip), vehicle: saline 95 % of control

Nc1cccc(OCCCOc2cccc(N)c2)c1
inactive: dose: 50.0 mg/kg/injection, schedule: Q01DX009 (ip), vehicle: Klucel (hydroxypropylcellulose) (HPC) 96 % of control | [5] 101 % of control | [6] 90 % of control

CCCCCCCCC(N)C(=O)O (stereo unspecified)
inactive: dose: 25.0 mg/kg/injection, schedule: Q04DX002 (ip), vehicle: gum acacia 107 % of control | [7] 91 % of control | dose: 50.0 mg/kg/injection, schedule: Q04DX002 (ip), vehicle: gum acacia 95 % of control | [8] 98 % of control | dose: 100.0 mg/kg/injection, schedule: Q04DX002 (ip), vehicle: gum acacia 114 % of control | [9] 95 % of control

C/C(CCc1c[nH]c2ccccc12)=N\O
inactive: dose: 100.0 mg/kg/injection, schedule: Q04DX003 (sc), vehicle: olive oil, sesame oil, peanut oil 98 % of control | dose: 200.0 mg/kg/injection, schedule: Q04DX003 (sc), vehicle: olive oil, sesame oil, peanut oil 98 % of control | dose: 400.0 mg/kg/injection, schedule: Q04DX003 (sc), vehicle: olive oil, sesame oil, peanut oil 104 % of control

Cc1cc(=O)c2cc(-c3ccccc3)ccc2[nH]1
inactive: dose: 100.0 mg/kg/injection, schedule: Q04DX003 (ip), vehicle: saline 100 % of control | dose: 200.0 mg/kg/injection, schedule: Q04DX003 (ip), vehicle: saline 92 % of control | dose: 400.0 mg/kg/injection, schedule: Q04DX003 (ip), vehicle: saline 90 % of control

CCCn1c(=O)cc(/C=N/Nc2ccc([N+](=O)[O-])cc2[N+](=O)[O-])c2ccccc21
inactive: dose: 100.0 mg/kg/injection, schedule: Q01DX001 (ip), vehicle: saline with Tween-80 90 % of control | dose: 200.0 mg/kg/injection, schedule: Q01DX001 (ip), vehicle: saline with Tween-80 90 % of control | dose: 400.0 mg/kg/injection, schedule: Q01DX001 (ip), vehicle: saline with Tween-80 90 % of control

O=C(CNC(=O)NCc1ccccc1)N/N=C/c1ccccc1O
inactive: dose: 50.0 mg/kg/injection, schedule: Q01DX009 (ip), vehicle: saline with Tween-80 89 % of control | [1] 103 % of control | [3] 97 % of control

Nc1[nH]c(=O)[nH]c(=O)c1N=Nc1ccc(S(=O)(=O)Nc2ccccn2)cc1
inactive: [10] 98 % of control | [11] 96 % of control | [12] 104 % of control

CC(=O)CCN1C(=O)c2ccccc2C1=O
inactive: [5] 100 % of control | [13] 101 % of control | [6] 104 % of control | [14] 90 % of control | [15] 97 % of control | [16] 96 % of control

CCc1c(C)nc(N)[nH]c1=O
inactive: [2] 106 % of control | [4] 106 % of control

CCOC(=O)N1CCC2(CC1)CC(=O)N(N1CCCCCC1)C2=O
inactive: [8] 93 % of control | [9] 93 % of control

O=[N+]([O-])c1c(Cl)nc2ccccn12
inactive: dose: 3.13 mg/kg/injection, schedule: Q01DX009 (ip), vehicle: saline 93 % of control | dose: 5.0 mg/kg/injection, schedule: Q01DX001 (ip), vehicle: saline 100 % of control | dose: 6.25 mg/kg/injection, schedule: Q01DX009 (ip), vehicle: saline 95 % of control | dose: 10.0 mg/kg/injection, schedule: Q01DX001 (ip), vehicle: saline 98 % of control | dose: 12.5 mg/kg/injection, schedule: Q01DX009 (ip), vehicle: saline 93 % of control | dose: 20.0 mg/kg/injection, schedule: Q01DX001 (ip), vehicle: saline 100 % of control | dose: 25.0 mg/kg/injection, schedule: Q01DX009 (ip), vehicle: saline 93 % of control | dose: 40.0 mg/kg/injection, schedule: Q01DX001 (ip), vehicle: saline 96 % of control | dose: 80.0 mg/kg/injection, schedule: Q01DX001 (ip), vehicle: saline 93 % of control | [10] 101 % of control | [11] 110 % of control | [12] 108 % of control

CC(=O)Nc1cccc(OCCCOc2ccc([N+](=O)[O-])cc2)c1
inactive: dose: 100.0 mg/kg/injection, schedule: Q01DX001 (ip), vehicle: carboxymethylcellulose (CMC) 95 % of control | dose: 200.0 mg/kg/injection, schedule: Q01DX001 (ip), vehicle: carboxymethylcellulose (CMC) 101 % of control | dose: 400.0 mg/kg/injection, schedule: Q01DX001 (ip), vehicle: carboxymethylcellulose (CMC) 90 % of control

CCCNC1(C(=O)O)CCCc2ccccc21 (stereo unspecified)
inactive: [13] 100 % of control | [14] 100 % of control | [16] 102 % of control

N#CC(NC(=O)c1ccccc1)SCc1ccccc1 (stereo unspecified)
inactive: dose: 25.0 mg/kg/injection, schedule: Q04DX002 (ip), vehicle: Klucel (hydroxypropylcellulose) (HPC) 107 % of control | [7] 91 % of control | [8] 91 % of control

CCCCCCCCCCCCCCCCCC(=O)N/N=C/C(=C\c1ccccc1)CCCCCC
inactive: [5] 90 % of control | [6] 98 % of control | [15] 93 % of control

CCOc1ccc(NC(=O)Nc2ccccc2OC)cc1
inactive: [5] 97 % of control | [13] 94 % of control | [6] 95 % of control | [14] 92 % of control | [15] 101 % of control | [16] 97 % of control

COc1ccc(C(CCCC(=O)O)C(CC(=O)O)C(=O)O)cc1 (stereo unspecified)
inactive: dose: 75.0 mg/kg/injection, schedule: Q04DX003 (ip), vehicle: saline 96 % of control | dose: 150.0 mg/kg/injection, schedule: Q04DX003 (ip), vehicle: saline 103 % of control | dose: 300.0 mg/kg/injection, schedule: Q04DX003 (ip), vehicle: saline 112 % of control

CC(=O)[C@@]12OC(C)(C)O[C@@H]1C[C@H]1[C@@H]3C[C@H](C)C4=CC(=O)CC[C@]4(C)[C@H]3CC[C@@]12C
inactive: dose: 100.0 mg/kg/injection, schedule: Q01DX001 (ip), vehicle: steriod suspending solution 103 % of control | dose: 100.0 mg/kg/injection, schedule: Q04DX003 (ip), vehicle: steriod suspending solution 100 % of control | dose: 200.0 mg/kg/injection, schedule: Q01DX001 (ip), vehicle: steriod suspending solution 98 % of control | dose: 200.0 mg/kg/injection, schedule: Q04DX003 (ip), vehicle: steriod suspending solution 98 % of control | dose: 400.0 mg/kg/injection, schedule: Q01DX001 (ip), vehicle: steriod suspending solution 97 % of control | dose: 400.0 mg/kg/injection, schedule: Q04DX003 (ip), vehicle: steriod suspending solution 97 % of control
